# Measurements as given in ChEMBL document CHEMBL1255394, “Antimicrobial susceptibilities of multidrug-resistant Campylobacter jejuni and C. coli strains: in vitro activities of 20 antimicrobial agents” (2010).
# Experiments:
# Format in all cases: functional
# Campylobacter jejuni = test: Antibacterial activity against Campylobacter jejuni assessed as resistant isolates by disk diffusion method
# Campylobacter coli = test: Antibacterial activity against Campylobacter coli assessed as resistant isolates by disk diffusion method
# Campylobacter sp. [1] = test: Antibacterial activity against Campylobacter sp. assessed as resistance breakpoint by CLSI method
# Campylobacter sp. [2] = test: Antibacterial activity against erythromycin resistant Campylobacter sp. by agar plate dilution method
# Campylobacter sp. [3] = test: Antibacterial activity against erythromycin susceptible Campylobacter sp. by agar plate dilution method
# Campylobacter sp. [4] = test: Antibacterial activity against erythromycin resistant Campylobacter sp. assessed as resistance breakpoint by CLSI method
# Campylobacter sp. [5] = test: Antibacterial activity against erythromycin susceptible Campylobacter sp. assessed as resistance breakpoint by CLSI method
# Campylobacter sp. [6] = test: Antimicrobial activity against erythromycin susceptible Campylobacter sp. assessed as clear zone of inhibition by disk diffusion method
# Campylobacter sp. [7] = test: Antimicrobial activity against erythromycin resistant Campylobacter sp. assessed as clear zone of inhibition by disk diffusion method
# Campylobacter sp. [8] = test: Antibacterial activity against Campylobacter sp. assessed as resistance breakpoint by EUCAST method
# Campylobacter sp. [9] = test: Antibacterial activity against erythromycin resistant Campylobacter sp. after 48 hrs by Etest method
# Campylobacter sp. [10] = test: Antibacterial activity against erythromycin susceptible Campylobacter sp. after 48 hrs by Etest method
Compound,Activity (Campylobacter jejuni) [%],Activity (Campylobacter coli) [%],Activity (Campylobacter sp. [1]) [µg/mL],MIC50 (Campylobacter sp. [2]) [µg/mL],MIC90 (Campylobacter sp. [2]) [µg/mL],MIC50 (Campylobacter sp. [3]) [µg/mL],MIC90 (Campylobacter sp. [3]) [µg/mL],Activity (Campylobacter sp. [4]) [%],Activity (Campylobacter sp. [5]) [%],inhibition zone (IZ) (Campylobacter sp. [6]) [mm],inhibition zone (IZ) (Campylobacter sp. [7]),Activity (Campylobacter sp. [8]) [µg/mL],MIC50 (Campylobacter sp. [9]) [µg/mL],MIC90 (Campylobacter sp. [9]) [µg/mL],MIC50 (Campylobacter sp. [10]) [µg/mL],MIC90 (Campylobacter sp. [10]) [µg/mL]
CC1(C)S[C@@H]2[C@H](NC(=O)[C@H](N)c3ccccc3)C(=O)N2[C@H]1C(=O)O [AMPICILLIN],18.2,22.2,32,8,128,0.5,32,36.8,16.6,–,–,–,–,–,–,–
CC[C@H]1OC(=O)[C@H](C)[C@@H](O[C@H]2C[C@@](C)(OC)[C@@H](O)[C@H](C)O2)[C@H](C)[C@@H](O[C@@H]2O[C@H](C)C[C@H](N(C)C)[C@H]2O)[C@](C)(O)C[C@@H](C)CN(C)[C@H](C)[C@@H](O)[C@]1(C)O [AZITHROMYCIN],5,38.9,4,> 128,> 128,0.25,0.5,89.5,0.5,–,–,–,–,–,–,–
O=C(N[C@H](CO)[C@H](O)c1ccc([N+](=O)[O-])cc1)C(Cl)Cl [CHLORAMPHENICOL],0.5,0,32,4,16,0.125,8,0,0.5,–,–,–,–,–,–,–
O=C(O)c1cn(C2CC2)c2cc(N3CCNCC3)c(F)cc2c1=O [CIPROFLOXACIN],42.4,–,–,16,> 32,0.5,1,–,–,–,–,–,–,–,–,–
CC[C@H]1OC(=O)[C@H](C)[C@@H](O[C@H]2C[C@@](C)(OC)[C@@H](O)[C@H](C)O2)[C@H](C)[C@@H](O[C@@H]2O[C@H](C)C[C@H](N(C)C)[C@H]2O)[C@](C)(OC)C[C@@H](C)C(=O)[C@H](C)[C@@H](O)[C@]1(C)O [CLARITHROMYCIN],–,–,–,> 128,> 128,0.25,128,–,–,–,–,–,–,–,–,–
CCC[C@@H]1C[C@@H](C(=O)N[C@@H]([C@H]2O[C@H](SC)[C@H](O)[C@@H](O)[C@H]2O)[C@H](C)Cl)N(C)C1 [CLINDAMYCIN],5,50,8,64,64,2,4,89.5,1.4,–,–,–,–,–,–,–
CC[C@H]1OC(=O)[C@H](C)[C@@H](O[C@H]2C[C@@](C)(OC)[C@@H](O)[C@H](C)O2)[C@H](C)[C@@H](O[C@@H]2O[C@H](C)C[C@H](N(C)C)[C@H]2O)[C@](C)(O)C[C@@H](C)C(=O)[C@H](C)[C@@H](O)[C@]1(C)O [ERYTHROMYCIN],4.5,50,16,> 128,> 128,2,4,100,0,>23,<=23 mm,–,–,–,–,–
C[C@@H](O)[C@H]1C(=O)N2C(C(=O)O)=C(SCCNC=N)C[C@H]12 [IMIPENEM ANHYDROUS],0,0,16,0.25,0.5,0.016,0.25,0,0,–,–,–,–,–,–,–
C[C@H]1COc2c(N3CCN(C)CC3)c(F)cc3c(=O)c(C(=O)O)cn1c23.C[C@H]1COc2c(N3CCN(C)CC3)c(F)cc3c(=O)c(C(=O)O)cn1c23.O [LEVOFLOXACIN],34.5,72.2,8,8,–,1,> 64,78.9,33.6,–,–,–,–,–,–,–
C[C@@H](O)[C@H]1C(=O)N2C(C(=O)O)=C(S[C@@H]3CN[C@H](C(=O)N(C)C)C3)[C@H](C)[C@H]12 [MEROPENEM],0,0,16,≤ 0.03,0.25,4,64,0,0,–,–,–,–,–,–,–
COc1c(N2C[C@@H]3CCCN[C@@H]3C2)c(F)cc2c(=O)c(C(=O)O)cn(C3CC3)c12 [MOXIFLOXACIN],–,–,–,2,16,≤ 0.03,0.125,–,–,–,–,–,–,–,–,–
CCn1cc(C(=O)O)c(=O)c2ccc(C)nc21 [NALIDIXIC ACID],41.4,83.3,32,128,128,2,8,94.7,40.1,–,–,–,–,–,–,–
CCn1cc(C(=O)O)c(=O)c2cc(F)c(N3CCNCC3)cc21 [NORFLOXACIN],40.9,83.3,16,64,> 64,8,256,94.7,39.6,–,–,–,–,–,–,–
CC1COc2c(N3CCN(C)CC3)c(F)cc3c(=O)c(C(=O)O)cn1c23 (centres undefined) [OFLOXACIN],40.9,83.3,8,16,64,0.25,32,84.2,40.6,–,–,–,–,–,–,–
N[C@@H]1CN(c2c(F)cc3c(=O)c(C(=O)O)cn([C@@H]4C[C@@H]4F)c3c2Cl)CC12CC2 [SITAFLOXACIN ANHYDROUS],–,–,–,0.125,0.5,0.5,1,–,–,–,–,–,–,–,–,–
CC[C@H]1OC(=O)[C@H](C)C(=O)[C@H](C)[C@@H](O[C@@H]2O[C@H](C)C[C@H](N(C)C)[C@H]2O)[C@](C)(OC)C[C@@H](C)C(=O)[C@H](C)[C@H]2N(CCCCn3cnc(-c4cccnc4)c3)C(=O)O[C@]12C [TELITHROMYCIN],–,–,–,32,> 128,0.064,0.25,–,–,–,–,–,–,–,–,–
CN(C)[C@@H]1C(O)=C(C(N)=O)C(=O)[C@@]2(O)C(O)=C3C(=O)c4c(O)cccc4[C@@](C)(O)[C@H]3C[C@@H]12 [TETRACYCLINE],28.1,66.7,16,128,> 128,2,8,73.7,26.9,–,–,–,–,–,–,–
CN(C)c1cc(NC(=O)CNC(C)(C)C)c(O)c2c1C[C@H]1C[C@H]3[C@H](N(C)C)C(O)=C(C(N)=O)C(=O)[C@@]3(O)C(O)=C1C2=O [TIGECYCLINE],0,0,0.5,–,–,–,–,0,0,–,–,>0.5,0.008,0.023,0.008,0.032
GENTAMICIN,0.9,0,16,0.5,0.5,4,64,0,0.9,–,–,–,–,–,–,–
